This note sets out measurements from patent US10399940B2, “Substituted pyrrolidines and methods of use” (AbbVie S.à.r.l., priority 2016, dated 2019).

For this assay, the target named is T1, F508delCFTR (Homo sapiens, UniProt P13569, DEL508-508).
T1 construct: expressed in transfected cells; host or cells: CFBE41o- (human lung derived epithelial cell line), doxycycline-inducible expression
Put plainly: Cell Surface Expression-Horse Radish Peroxidase (CSE-HRP) assay. Format: cell-based. To be noted: CFBE41o-F508delCFTR-HRP cells; for Maximum % activity (with co-corrector): with co-corrector (2 μM); for Maximum % activity (with co-corrector) / Maximum % activity (without co-corrector): normalized to on-plate positive control, highest concentration 20 μM. In short, it runs like this:
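Surface F508delCFTR-HRP was read by luminol luminescence after 18–24 h compound exposure at 33 °C, without or with 2 μM co-corrector. Doses were eight 3-fold steps from 20 μM, in doxycycline-induced (0.5 μg/mL, 72 h) CFBE41o- cells. % activity was scaled to the on-plate 2 μM positive control minus DMSO; EC50 came from a variable-slope sigmoid fit.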

Setting [1] is: test compound without co-corrector, 18-24 hours at 33° C., read-out: EC50 (without co-corrector).
Setting [2] is: with co-corrector (2 μM of 3-[(2R,4R)-4-({[1-(2,2-difluoro-1,3-benzodioxol-5-yl)cyclopropyl]carbonyl}amino)-7-methoxy-3,4-dihydro-2H-chromen-2-yl]benzoic acid), read-out: EC50 (with co-corrector).

Read-outs that look alike come from different tables or passages of the source.

T1 sequence (P13569 with tags, fused parts or gaps DEL508-508): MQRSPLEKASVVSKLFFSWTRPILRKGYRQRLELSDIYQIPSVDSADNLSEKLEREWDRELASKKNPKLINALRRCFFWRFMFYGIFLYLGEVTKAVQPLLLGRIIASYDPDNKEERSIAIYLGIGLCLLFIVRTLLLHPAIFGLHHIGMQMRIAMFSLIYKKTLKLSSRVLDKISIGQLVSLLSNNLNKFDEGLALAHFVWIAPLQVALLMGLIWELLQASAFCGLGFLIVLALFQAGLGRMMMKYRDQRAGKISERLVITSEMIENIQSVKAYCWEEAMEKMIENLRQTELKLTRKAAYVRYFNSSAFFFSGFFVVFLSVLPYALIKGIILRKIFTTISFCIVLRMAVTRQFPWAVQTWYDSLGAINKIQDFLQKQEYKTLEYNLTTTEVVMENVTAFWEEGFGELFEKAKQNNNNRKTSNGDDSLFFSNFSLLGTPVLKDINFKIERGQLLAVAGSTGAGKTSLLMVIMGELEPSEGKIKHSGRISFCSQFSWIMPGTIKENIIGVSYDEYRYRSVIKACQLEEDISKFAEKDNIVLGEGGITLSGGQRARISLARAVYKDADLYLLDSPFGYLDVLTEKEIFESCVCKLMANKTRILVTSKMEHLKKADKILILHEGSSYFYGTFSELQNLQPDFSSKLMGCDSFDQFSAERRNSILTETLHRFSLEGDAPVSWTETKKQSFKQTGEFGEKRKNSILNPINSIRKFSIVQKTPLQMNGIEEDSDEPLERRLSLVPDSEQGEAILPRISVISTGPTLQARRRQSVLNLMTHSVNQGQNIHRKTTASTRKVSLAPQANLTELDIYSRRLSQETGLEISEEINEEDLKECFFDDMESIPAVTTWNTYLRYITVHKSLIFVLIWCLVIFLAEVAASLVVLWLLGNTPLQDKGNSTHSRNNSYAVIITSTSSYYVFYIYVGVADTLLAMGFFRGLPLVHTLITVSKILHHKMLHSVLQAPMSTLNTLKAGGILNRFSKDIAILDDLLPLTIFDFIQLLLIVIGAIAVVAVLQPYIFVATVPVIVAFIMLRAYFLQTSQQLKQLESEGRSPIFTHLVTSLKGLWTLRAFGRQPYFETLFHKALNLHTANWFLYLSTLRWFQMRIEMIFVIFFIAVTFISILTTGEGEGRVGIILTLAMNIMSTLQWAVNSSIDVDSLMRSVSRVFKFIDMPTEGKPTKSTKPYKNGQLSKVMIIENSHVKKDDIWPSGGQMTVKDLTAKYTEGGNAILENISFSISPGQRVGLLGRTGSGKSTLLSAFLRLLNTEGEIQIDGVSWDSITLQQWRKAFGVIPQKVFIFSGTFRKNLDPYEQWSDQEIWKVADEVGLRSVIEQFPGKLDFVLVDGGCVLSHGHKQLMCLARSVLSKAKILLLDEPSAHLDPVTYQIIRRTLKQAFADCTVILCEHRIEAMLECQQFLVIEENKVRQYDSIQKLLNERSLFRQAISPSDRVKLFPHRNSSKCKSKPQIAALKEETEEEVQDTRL

In general, EC50 refers to the concentration giving half of the maximal effect. With `COc1ncc(C(C)(C)C)cc1CO[C@H]1[C@H](C(C)(C)C)[C@@H](C(=O)O)N(C(=O)[C@@H]2CCC[C@@H](OC)C2)[C@H]1c1ccccc1` [Example 61, (2S,3R,4S,5S)-3-tert-butyl-4-[(5-tert-butyl-2-methoxypyridin-3-yl)methoxy]-1-[(1R,3R)-3-methoxycyclohexane-1-carbonyl]-5-phenylpyrrolidine-2-carboxylic acid], the “Maximum % activity (with co-corrector)” value is reported as “+++ (≥350)” and the “Maximum % activity (without co-corrector)” value was “+++ (≥200)”. Besides, the EC50 under setting [1] is less than 1000 nM. In addition, the EC50 under setting [2] was less than 1000 nM.

As to `COc1ncc(C(C)(C)C)cc1CO[C@H]1[C@H](C(C)(C)C)[C@@H](C(=O)O)N(C(=O)C2CCCCC2)[C@H]1c1ccccc1F` [Example 62, (2S,3R,4S,5S)-3-tert-butyl-4-[(5-tert-butyl-2-methoxypyridin-3-yl)methoxy]-1-(cyclohexanecarbonyl)-5-(2-fluorophenyl)pyrrolidine-2-carboxylic acid], the “Maximum % activity (with co-corrector)” value is “+++ (≥350)”; the “Maximum % activity (without co-corrector)” value was “++ (≥100 and <200)”. For the same compound, the EC50 under setting [1] is less than 1000 nM. The EC50 under setting [2] is less than 1000 nM.

On to `COc1ncc(C(C)(C)C)cc1CO[C@H]1[C@H](C(C)(C)C)[C@@H](C(=O)O)N(C(=O)OC(C)C)[C@H]1c1ccccc1` [Example 63, (2S,3R,4S,5S)-3-tert-butyl-4-[(5-tert-butyl-2-methoxypyridin-3-yl)methoxy]-5-phenyl-1-{[(propan-2-yl)oxy]carbonyl}pyrrolidine-2-carboxylic acid], for which the “Maximum % activity (with co-corrector)” value was “+++ (≥350)”; the “Maximum % activity (without co-corrector)” value is “++ (≥100 and <200)”. For the same compound, under setting [1], the EC50 lay in the range of 1000 to 10000 nM. Also, under setting [2], the EC50 was 1000 to 10000 nM.

On to `COc1ncc(C(F)(F)F)cc1CO[C@H]1[C@H](C(C)(C)C)[C@@H](C(=O)O)N(C(=O)OC(C)C)[C@H]1c1ccccc1` [Example 64, (2S,3R,4S,5S)-3-tert-butyl-4-{[2-methoxy-5-(trifluoromethyl)pyridin-3-yl]methoxy}-5-phenyl-1-{[(propan-2-yl)oxy]carbonyl}pyrrolidine-2-carboxylic acid], for which the “Maximum % activity (with co-corrector)” value is listed as “+++ (≥350)”; the “Maximum % activity (without co-corrector)” value is “++ (≥100 and <200)”. The EC50 under setting [1] fell in the range of 1000 to 10000 nM. Besides, under setting [2], the EC50 was 1000 to 10000 nM.

With `COc1ncc(-c2ccc(C)cc2F)cc1CO[C@H]1[C@H](C(C)(C)C)[C@@H](C(=O)O)N(C(=O)OC(C)C)[C@H]1c1ccccc1` [Example 65, (2S,3R,4S,5S)-3-tert-butyl-4-{[5-(2-fluoro-4-methylphenyl)-2-methoxypyridin-3-yl]methoxy}-5-phenyl-1-{[(propan-2-yl)oxy]carbonyl}pyrrolidine-2-carboxylic acid], the “Maximum % activity (with co-corrector)” value is “+++ (≥350)” and the “Maximum % activity (without co-corrector)” value is given as “+ (<100)”. Further, the EC50 under setting [1] was less than 1000 nM. In addition, under setting [2], the EC50 is less than 1000 nM.

Turning to `COc1ncc(-c2ccccc2F)cc1CO[C@H]1[C@H](C(C)(C)C)[C@@H](C(=O)O)N(C(=O)OC(C)C)[C@H]1c1ccccc1` [Example 66, (2S,3R,4S,5S)-3-tert-butyl-4-{[5-(2-fluorophenyl)-2-methoxypyridin-3-yl]methoxy}-5-phenyl-1-{[(propan-2-yl)oxy]carbonyl}pyrrolidine-2-carboxylic acid], the “Maximum % activity (with co-corrector)” value was “+++ (≥350)” and the “Maximum % activity (without co-corrector)” value is recorded as “+ (<100)”. The EC50 under setting [1] is less than 1000 nM. Besides, the EC50 under setting [2] was 1000 to 10000 nM.

With `COc1ncc(-c2ccc(F)cc2C)cc1CO[C@H]1[C@H](C(C)(C)C)[C@@H](C(=O)O)N(C(=O)OC(C)C)[C@H]1c1ccccc1` [Example 67, (2S,3R,4S,5S)-3-tert-butyl-4-{[5-(4-fluoro-2-methylphenyl)-2-methoxypyridin-3-yl]methoxy}-5-phenyl-1-{[(propan-2-yl)oxy]carbonyl}pyrrolidine-2-carboxylic acid], the “Maximum % activity (with co-corrector)” value is recorded as “+++ (≥350)” and the “Maximum % activity (without co-corrector)” value is recorded as “+ (<100)”. The EC50 under setting [1] is less than 1000 nM. For the same compound, the EC50 under setting [2] is less than 1000 nM.

Take `COc1ncc(-c2ccc(F)cc2F)cc1CO[C@H]1[C@H](C(C)(C)C)[C@@H](C(=O)O)N(C(=O)OC(C)C)[C@H]1c1ccccc1` [Example 68, (2S,3R,4S,5S)-3-tert-butyl-4-{[5-(2,4-difluorophenyl)-2-methoxypyridin-3-yl]methoxy}-5-phenyl-1-{[(propan-2-yl)oxy]carbonyl}pyrrolidine-2-carboxylic acid]: the “Maximum % activity (with co-corrector)” value is “+++ (≥350)” and the “Maximum % activity (without co-corrector)” value is “+ (<100)”. In addition, the EC50 under setting [1] is less than 1000 nM. For the same compound, the EC50 under setting [2] lay in the range of 1000 to 10000 nM.

With `COc1ncc(C2=CCOCC2)cc1CO[C@H]1[C@H](C(C)(C)C)[C@@H](C(=O)O)N(C(=O)OC(C)C)[C@H]1c1ccccc1` [Example 69, (2S,3R,4S,5S)-3-tert-butyl-4-{[5-(3,6-dihydro-2H-pyran-4-yl)-2-methoxypyridin-3-yl]methoxy}-5-phenyl-1-{[(propan-2-yl)oxy]carbonyl}pyrrolidine-2-carboxylic acid], the “Maximum % activity (with co-corrector)” value was “++ (≥150 and <350)”; the “Maximum % activity (without co-corrector)” value is reported as “+ (<100)”. Under setting [1], the EC50 was in the range of 1000 to 10000 nM. The EC50 under setting [2] was in the range of 1000 to 10000 nM.

Turning to `COc1cccc(-c2cnc(OC)c(CO[C@H]3[C@H](C(C)(C)C)[C@@H](C(=O)O)N(C(=O)OC(C)C)[C@H]3c3ccccc3)c2)c1` [Example 70, (2S,3R,4S,5S)-3-tert-butyl-4-{[2-methoxy-5-(3-methoxyphenyl)pyridin-3-yl]methoxy}-5-phenyl-1-{[(propan-2-yl)oxy]carbonyl}pyrrolidine-2-carboxylic acid], the “Maximum % activity (with co-corrector)” value is “++ (≥150 and <350)”; the “Maximum % activity (without co-corrector)” value is “+ (<100)”. In addition, the EC50 under setting [1] fell in the range of 1000 to 10000 nM. Further, the EC50 under setting [2] is 1000 to 10000 nM.

Take `COc1ncc(-c2ccc(C)cc2)cc1CO[C@H]1[C@H](C(C)(C)C)[C@@H](C(=O)O)N(C(=O)OC(C)C)[C@H]1c1ccccc1` [Example 71, (2S,3R,4S,5S)-3-tert-butyl-4-{[2-methoxy-5-(4-methylphenyl)pyridin-3-yl]methoxy}-5-phenyl-1-{[(propan-2-yl)oxy]carbonyl}pyrrolidine-2-carboxylic acid]: the “Maximum % activity (with co-corrector)” value is listed as “+++ (≥350)” and the “Maximum % activity (without co-corrector)” value was “+ (<100)”. Under setting [1], the EC50 lay in the range of 1000 to 10000 nM. The EC50 under setting [2] fell in the range of 1000 to 10000 nM.

As for `COc1nc(C(C)(C)C)ccc1CO[C@H]1[C@H](C(C)(C)C)[C@@H](C(=O)O)N(C(=O)OC(C)C)[C@H]1c1ccccc1` [Example 72, (2S,3R,4S,5S)-3-tert-butyl-4-[(6-tert-butyl-2-methoxypyridin-3-yl)methoxy]-5-phenyl-1-{[(propan-2-yl)oxy]carbonyl}pyrrolidine-2-carboxylic acid], the “Maximum % activity (with co-corrector)” value is reported as “+++ (≥350)” and the “Maximum % activity (without co-corrector)” value is reported as “+ (<100)”. In addition, under setting [1], the EC50 fell in the range of 1000 to 10000 nM. Moreover, under setting [2], the EC50 fell in the range of 1000 to 10000 nM.

Take `COc1ncc(C(F)(F)F)cc1CO[C@H]1[C@H](C(C)(C)C)[C@@H](C(=O)O)N(C(=O)OC(C)C)[C@H]1c1ccccc1F` [Example 73, (2S,3R,4S,5S)-3-tert-butyl-5-(2-fluorophenyl)-4-{[2-methoxy-5-(trifluoromethyl)pyridin-3-yl]methoxy}-1-{[(propan-2-yl)oxy]carbonyl}pyrrolidine-2-carboxylic acid]: the “Maximum % activity (with co-corrector)” value is recorded as “+++ (≥350)”; the “Maximum % activity (without co-corrector)” value is “++ (≥100 and <200)”. Further, the EC50 under setting [1] lay within 1000 to 10000 nM. The EC50 under setting [2] is less than 1000 nM.

For `COc1ncc(C(C)(C)C)cc1CO[C@H]1[C@H](C(C)(C)C)[C@@H](C(=O)O)N(C(=O)OC(C)C)[C@H]1c1ccccc1F` [Example 74, (2S,3R,4S,5S)-3-tert-butyl-4-[(5-tert-butyl-2-methoxypyridin-3-yl)methoxy]-5-(2-fluorophenyl)-1-{[(propan-2-yl)oxy]carbonyl}pyrrolidine-2-carboxylic acid], the “Maximum % activity (with co-corrector)” value was “+++ (≥350)”; the “Maximum % activity (without co-corrector)” value is “++ (≥100 and <200)”. For the same compound, the EC50 under setting [1] was in the range of 1000 to 10000 nM. In addition, the EC50 under setting [2] was in the range of 1000 to 10000 nM.

For the compound `COc1ncc(C(C)(C)C)cc1CO[C@@H]1[C@H](C(C)(C)C)[C@@H](C(=O)O)N(C(=O)OC(C)C)[C@H]1c1ccccc1F` [Example 75, (2S,3R,4R,5S)-3-tert-butyl-4-[(5-tert-butyl-2-methoxypyridin-3-yl)methoxy]-5-(2-fluorophenyl)-1-{[(propan-2-yl)oxy]carbonyl}pyrrolidine-2-carboxylic acid], the “Maximum % activity (with co-corrector)” value was “+ (<150)” and the “Maximum % activity (without co-corrector)” value is on record as “+ (<100)”. Also, the EC50 under setting [1] is greater than 10000 nM. In addition, under setting [2], the EC50 is greater than 10000 nM.

For the compound `COc1ncc(Br)cc1CO[C@H]1[C@H](C(C)(C)C)[C@@H](C(=O)O)N(C(=O)OC(C)C)[C@H]1c1ccccc1F` [Example 76, (2S,3R,4S,5S)-4-[(5-bromo-2-methoxypyridin-3-yl)methoxy]-3-tert-butyl-5-(2-fluorophenyl)-1-{[(propan-2-yl)oxy]carbonyl}pyrrolidine-2-carboxylic acid], the “Maximum % activity (with co-corrector)” value is “+++ (≥350)”; the “Maximum % activity (without co-corrector)” value was “++ (≥100 and <200)”. In addition, the EC50 under setting [1] was 1000 to 10000 nM. Moreover, the EC50 under setting [2] was in the range of 1000 to 10000 nM.
